# Data: patent US20250161299A1, “ORAL PCLX-001 IN THE TREATMENT OF HUMAN CANCER” (PACYLEX PHARMACEUTICALS INC., priority 2022, published 2025)
# “Also recorded” adds a separate entry of the source. Where two headings read alike, the source gives them in different places.
# How the values were obtained:
# [1] = tested on: Bladder cultured human cancer cells; conditions: mean among sensitive cell lines (EC50<500 nM or IC50<500 nM), cited from earlier work
# [2] = tested on: Breast cultured human cancer cells; conditions: mean among sensitive cell lines, cited from earlier work
# [3] = tested on: Lymphoma cultured human cancer cells; conditions: mean among sensitive cell lines, cited from earlier work; for IC50: read-out: IC50 mean +/− SD
# [4] = tested on: Melanoma cultured human cancer cells; conditions: mean among sensitive cell lines, cited from earlier work; for IC50: read-out: IC50 mean +/− SD
# human NMT2 = human NMT2 (Homo sapiens, UniProt O60551); test: Inhibition of N-myristoyltransferase NMT2; type: biochemical
# [5] = tested on: DLBCL / soft tissue sarcoma in patients; test: Phase I trial efficacy assessment (CT/PET imaging, Lugano criteria, RECIST); type: in vivo, human
# Procedure: Patients 1 and 2 had baseline cross sectional and PET imaging, and patient 3 had baseline cross sectional imaging. Protocol defined imaging was CT every 2 cycles and PET every 6 cycles or as clinically indicated. Evaluation of response was by the Lugano classification criteria for the evaluation of non-Hodgkin lymphoma, and […] for the evaluation of soft tumors. Computed tomography was performed on patient 2 on two occasions, immediately prior to treatment (pre-treatment scan obtained Oct. 29, 2021) and after two 28-day cycles of oral PCLX-001 at a daily dose of 20 mg by mouth (post-treatment scan obtained Dec. 30, 2021). Both scans were done on the same scanner using the same techniques including the use of intravenous contrast dye. The three pairs of pre and post treatment scans are of the same cross section of the patient, in order to identify a clinical trial target lesion of a liver metastasis in the subcapsular region of segment five of the liver. […] FIG. 2A-4F.
# [6] = tested on: Colon cultured human cancer cells; conditions: mean among sensitive cell lines, read-out: IC50 mean +/− SD, cited from earlier work
# [7] = tested on: Myeloma cultured human cancer cells; conditions: first panel, mean among sensitive cell lines, read-out: EC50 mean +/− SD; cited from earlier work
# in vivo [8] = conditions: rat, plasma, po
# [9] = PK and maximally tolerated dose, daily oral administration, mouse; type: in vivo
# Procedure: The allometric scaling is based on toxicity, and the toxicity is that which establishes the Maximally Tolerated Dose (MTD) in animal studies. In mice, one toxicity study established the MTD to be 35 mg/kg. […] It was not expected that, as shown herein, doses markedly lower than 180 mg daily in humans would have anticancer effects.
# […]. Possible explanations for this finding include hysteresis loops (7), and flip-flop pharmacokinetics (7).
# Allometric scaling is a means by which PK results from animal studies can be used to predict human drug exposure for a range of drug doses. In this case, allometric scaling was performed using representative values from the PK studies with daily oral PCLX-001 administration for 14 or 28 days in non-human species. These inputs were analyzed with www.truedose.app to predict the Maximally Tolerated Dose we would see in this phase one clinical trial (FIG. 2). […]
# [10] = PK and maximally tolerated dose, daily oral administration, rat
# [11] = tested on: Bruton tyrosine kinase (BTK); conditions: models of human lymphoma; cited from earlier work
# implanted human tumors = test: Anticancer efficacy in mice bearing implanted human tumors; type: in vivo, mouse; conditions: in any given experiment
# [12] = GLP non-clinical safety testing; cited from earlier work
# [13] = PK and maximally tolerated dose, daily oral administration, dog
# in vivo [14] = conditions: dog, plasma, po
# hERG = hERG (Homo sapiens, UniProt Q12809); test: Preclinical hERG interaction testing
# [15] = tested on: Pancreas cultured human cancer cells; conditions: mean among sensitive cell lines, cited from earlier work
# [16] = first panel, read-out: EC50 mean +/− SD
# [17] = second panel, read-out: IC50 mean +/− SD
# Sequence of hERG (Q12809 whole entry): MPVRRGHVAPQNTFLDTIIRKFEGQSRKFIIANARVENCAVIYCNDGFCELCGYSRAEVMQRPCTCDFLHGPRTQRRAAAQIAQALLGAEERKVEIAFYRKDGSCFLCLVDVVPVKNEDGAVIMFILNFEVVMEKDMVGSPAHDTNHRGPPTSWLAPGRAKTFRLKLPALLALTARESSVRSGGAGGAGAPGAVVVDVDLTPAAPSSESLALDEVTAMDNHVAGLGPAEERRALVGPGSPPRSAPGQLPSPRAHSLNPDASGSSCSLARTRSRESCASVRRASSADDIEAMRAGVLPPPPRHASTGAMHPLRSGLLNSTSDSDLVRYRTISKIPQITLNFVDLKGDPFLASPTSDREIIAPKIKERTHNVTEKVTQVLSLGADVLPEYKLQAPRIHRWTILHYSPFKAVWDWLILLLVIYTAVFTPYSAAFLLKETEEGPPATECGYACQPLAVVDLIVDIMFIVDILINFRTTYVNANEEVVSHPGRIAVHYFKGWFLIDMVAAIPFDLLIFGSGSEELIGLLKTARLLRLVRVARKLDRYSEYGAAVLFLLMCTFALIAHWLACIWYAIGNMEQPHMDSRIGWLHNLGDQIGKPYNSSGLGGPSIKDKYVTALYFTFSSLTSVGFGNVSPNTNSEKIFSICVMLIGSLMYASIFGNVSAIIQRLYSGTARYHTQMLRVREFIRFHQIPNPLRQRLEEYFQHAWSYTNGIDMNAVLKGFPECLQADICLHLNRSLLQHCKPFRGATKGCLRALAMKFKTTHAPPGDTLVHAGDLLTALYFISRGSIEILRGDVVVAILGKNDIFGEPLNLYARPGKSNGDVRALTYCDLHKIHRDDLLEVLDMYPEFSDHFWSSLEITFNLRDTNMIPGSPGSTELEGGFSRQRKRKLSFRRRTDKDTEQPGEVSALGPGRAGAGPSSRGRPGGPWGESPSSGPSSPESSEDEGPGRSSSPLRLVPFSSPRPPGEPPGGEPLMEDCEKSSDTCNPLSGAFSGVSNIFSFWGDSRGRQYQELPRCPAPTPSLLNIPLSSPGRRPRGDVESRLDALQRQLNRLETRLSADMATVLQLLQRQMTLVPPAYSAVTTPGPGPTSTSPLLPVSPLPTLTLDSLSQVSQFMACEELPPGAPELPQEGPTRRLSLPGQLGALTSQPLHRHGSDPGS
# Sequence of human NMT2 (O60551 whole entry): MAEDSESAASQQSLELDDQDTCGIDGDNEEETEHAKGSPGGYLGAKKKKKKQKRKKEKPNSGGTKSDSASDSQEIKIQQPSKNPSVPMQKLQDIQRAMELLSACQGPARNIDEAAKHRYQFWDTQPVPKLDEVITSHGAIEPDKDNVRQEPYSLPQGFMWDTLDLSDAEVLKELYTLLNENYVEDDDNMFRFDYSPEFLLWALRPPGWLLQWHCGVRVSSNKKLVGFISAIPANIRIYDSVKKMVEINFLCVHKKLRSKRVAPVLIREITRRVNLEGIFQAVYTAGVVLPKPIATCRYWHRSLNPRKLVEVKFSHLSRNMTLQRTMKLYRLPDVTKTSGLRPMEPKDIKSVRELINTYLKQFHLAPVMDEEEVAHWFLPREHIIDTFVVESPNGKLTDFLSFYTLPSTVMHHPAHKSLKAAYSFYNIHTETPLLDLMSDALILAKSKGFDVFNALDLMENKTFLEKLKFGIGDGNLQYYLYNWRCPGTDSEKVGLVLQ
smiles,measurement,setting,value
"Cc1c(NS(=O)(=O)c2c(Cl)cc(-c3ccnc(N4CCNCC4)c3)cc2Cl)c(CC(C)C)nn1C [PCLX-001, 2,6-dichloro-N-(3-isobutyl-1,5-dimethyl-1H-pyrazol-4-yl)-4-(2-(piperazin-1-yl)pyridin-4-yl)benzene sulfonamide]",EC50,[1]; [16],155 ± 49.7 nM
same,IC50,[1]; [17],172 ± 79.8 nM
same,EC50,[2]; [16],101 ± 96.4 nM
same,IC50,[2]; [17],161 ± 47.9 nM
same,EC50,[3]; [16],80.9 nM
same,IC50,[3]; second panel,138 ± 55.8 nM
same,IC50,[3]; third panel,230 ± 107 nM
same,EC50,[4]; [16],134 ± 53.9 nM
same,IC50,[4]; second panel,208 ± 99.5 nM
same,IC50,[4]; third panel,157 ± 192 nM
same,inhibition of human NMT2,human NMT2,potent
same,"disease response (Lugano criteria, computed tomography day 28)","[5]; Patient 1, refractory relapsed DLBCL, 20 mg oral daily",disease progression; also recorded: progression of the volume of lymphoma
same,response in lymph nodes,"[5]; Patient 2, DLBCL, 20 mg oral daily",progressive disease in lymph nodes
same,response of hepatic metastatic disease on CT,"[5]; Patient 2, DLBCL, 20 mg oral daily, about two months",marked reduction of volume of hepatic metastatic disease; also recorded: marked tumor response in hepatic metastases; also recorded: marked tumor regression; also recorded: regression of a malignant lesion in the liver
same,response assessment scans,"[5]; Patient 3, leiomyosarcoma, after two 28 day cycles",progressive disease
same,IC50,[6]; second panel,158 ± 27.4 nM
same,IC50,[6]; third panel,210 ± 85.4 nM
same,EC50,[7],144 ± 44.7 nM
same,Cmax,in vivo [8],3110 ng/mL
same,half-life,in vivo [8],60 min
same,Maximally Tolerated Dose daily oral administration,[9],35 mg/kg
same,Cmax,"[9]; in vivo, po",46000 ng/mL
same,half-life,"[9]; in vivo, po",96 min
same,Maximally Tolerated Dose daily oral administration,[10],125 mg/kg
same,BTK modification and downstream signaling,[11],profoundly inhibited
same,effective dose relative to the dose that produced mouse toxicity,implanted human tumors,greater than 50%
same,dose limiting toxicity,[12],diarrhea was dose limiting
same,Maximally Tolerated Dose daily oral administration,[13],4 mg/kg
same,Cmax,in vivo [14],650 ng/mL
same,half-life,in vivo [14],228 min
same,hERG interaction,hERG,no significant hERG interaction
same,EC50,[15]; [16],109 ± 90 nM
same,IC50,[15]; [17],77.7 ± 13.7 nM
